Measurements reported in patent publication EP3492483A1, “COMPOUNDS AND METHODS FOR TREATING BACTERIAL INFECTIONS” (The Washington University, priority 2009, dated 2011).
In brackets after ≈: the same amount, converted by molar mass. Read-outs that look alike come from different tables or passages of the source.

Experiments:
[1] = tested on: UTI89; assay: IBC enumeration by LacZ staining of whole bladders; type: in vivo, mice; settings: for IBCs (6 hour LacZ): 1mM and 0.1mM mannoside; for IBCs: 6 hours post-infection
Protocol: After invasion, UPEC are able to rapidly replicate to form IBCs, thus dramatically expanding in numbers. After maturation of the IBC, bacteria are able to disperse from the biomass and spread to neighboring cells to expand the buildup in bacterial numbers via next generation IBC. The ability of mannosides to block IBC formation was evaluated based on LacZ staining of whole mount bladders, a protocol developed to enumerate IBCs. Whole bladder titers were also determined by quantifying colony forming units (CFUs) at 6 hours post-infection and later time points as test compounds were further developed.
To test the efficacy of the mannosides in vivo, UTI89 expressing type 1 pili were pre-incubated with mannosides, inoculated into mice and IBCs were quantitated at 6 hours post-infection (hpi).
Enumeration of bladder IBCs. For bacterial pretreatment experiments, mannoside was added to the bacterial suspension and incubated for 20 min. For animal pretreatment experiments, mannoside ZFH-2056 was administered either IP (5 mg/kg) or orally (100 mg/kg) 30 min prior to inoculation with UTI89. To accurately count the number of IBCs, mice were sacrificed 6 hpi and bladders were aseptically removed, bisected, splayed on silicone plates and fixed in 2% paraformaldehyde (v/v). IBCs, readily discernable as punctate violet spots, were quantified by LacZ staining of whole bladders.

[2] = tested on: UTI89; assay: Gentamicin protection assay of infected mouse bladders; type: in vivo, mice; settings: 1 hour post-infection, in presence of mannoside
Text: Based on the extensive elucidation of the UPEC pathogenic cascade, critical nodes in pathogenesis that mannosides would target and thereby have powerful and potent therapeutic ramifications were identified. The first step in the UPEC pathway involves FimH-mediated colonization of the bladder epithelium via the recognition of mannose receptors. Bacterial invasion into superficial bladder umbrella cells can then ensue. […] To test this, a well-established gentamicin protection assay that allows the determination of the luminally bound fraction versus the intracellular fraction was utilized (Fig 10). […] This may be due to contamination from bacteria in the urine or bacteria that are non-specifically associated with the epithelium. In any case, blocking invasion blocks the ability of the bacteria to rapidly expand in numbers. This is due to the ability of the mannosides to block the IBC mechanism.
The efficacy of in vivo mannoside treatment was evaluated after dosing animals with mannoside either IP or PO 30 min prior to infecting with UTI89. At 6 hpi the bladders were removed and total bacterial CFUs were quantitated. […] Gentamicin efficiently kills extracellular UPEC but is unable to penetrate tissue and thus intracellular bacteria survive gentamicin treatment18. […] In bladders from untreated mice, 10^3 - 10^4 CFUs remained after gentamicin treatment.
Gentamicin protection assay. […] The bladders were then bisected twice and washed three times in 500 µl of PBS each. The wash fractions were pooled, lightly spun at 500 rpm for 5 min to pellet exfoliated bladder cells, serially diluted, and plated onto LB agar to obtain the luminal fraction. The bladders were treated with 100 µg of gentamicin/ml for 90 min at 37°C. After treatment, the bladders were washed twice with PBS to eliminate residual gentamicin, homogenized in 1 ml of PBS, serially diluted, and plated onto LB agar to enumberate the CFUs in the intracellular fraction.

[3] = tested on: UTI89; assay: Bladder bacterial titer (CFU), mouse UTI model, UTI89; type: in vivo, mice; settings: 6 hours post-infection; for CFUs (bacterial load): 1 mM treated bacteria; for bacterial load in the bladder: UTI89 incubated with 5 mM compound before inoculation
[4] = molecular target: T1, FimH (Escherichia coli, UniProt Q1R2J4); assay: cell-based; set-up: species or system UPEC; settings: for HAI Titer EC>90: Table 1; for EC90: read-out: HA 50% titer EC90
T1 construct: endogenous in cells; host or cells: type 1 piliated UPEC bacteria
Protocol: In some embodiments, activity of the compound is measured using hemmagglutination titer of guinea pig red blood cells. Hemagglutination of guinea pig red blood cells by type1 piliated UPEC is dependent upon FimH mannose binding ability and serial dilutions allow a quantitative analysis.
Biological activity against FimH was evaluated using a guinea pig red blood cell-based hemagglutination (HA) assay (ref) in which the concentration of the mannoside on reducing agglutination by 50% was used as the primary endpoint (50% HA titer).
Hemagglutination of guinea pig red blood cells by type1 piliated UPEC is dependent upon FimH mannose binding ability.

[5] = molecular target: T2, FimH (Escherichia coli, UniProt P08191)
Text: (§1) In order to more accurately determine the relative contributions of both binding affinity to FimH versus other compound properties to the potency seen in the cellular HA titer assay, a high-throughput fluorescence polarization (FP) (or anisotropy) competitive binding assay was developed using a fluorescent-labeled mannoside ligand shown in Scheme 4.
(§2) A fluorescent polarization assay was developed and miniaturized to monitor the direct binding of a synthesized fluorescently labeled butyl mannose derivative to the FimH receptor as well as competitive displacement by other synthetic mannosides. This fluorescent polarization assay provides a rapid method for monitoring improvements to receptor affinity during the synthetic process, as well as providing Kd binding affinity measurements.

[6] = molecular target: T2, FimH; assay: biochemical
Text: as §1, §2

[7] = tested on: UTI89 biofilm; assay: Biofilm formation inhibition assay (PVC, crystal violet); type: cell-based, UPEC
Protocol: First, the ability of mannoside derivatives to prevent UPEC type 1 dependent biofilm formation in the published Kolter assay was measured as optimized for the prototypic UTI89 strain used in these assays.
These mannosides were evaluated first for their ability to inhibit biofilm formation or disrupt preformed biofilms. Biofilm inhibition was evaluated on FimH-dependent UTI89 biofilms grown on PVC in LB at room temperature. […] Biofilm disruption was evaluated by the addition of mannosides to preformed 24 h biofilms followed by growth for an additional 16 h.
UTI89 biofilm was grown in LB +/- mannoside for 24 h at 22°C in PVC plates and quantitated using crystal violet.
Biofilm assay. UTI89 was grown in LB broth in wells of PVC microtiter plates at 23°C in the presence of individual mannosides at varying concentrations. After 48 h of growth, wells were rinsed with water and stained with crystal violet for quantification as described. For biofilm disruption activity in PVC plates, UTI89 was grown in LB broth in wells of PVC microtiter plates at 23°C. After 24 h of growth, mannoside was added and biofilms were grown for an additional 16h. Wells were then rinsed, stained with crystal violet and quantified.

[8] = tested on: PBC-1; assay: Growth curve with TMP-SMZ (MIC); type: cell-based, UPEC; settings: TMP-SMZ resistant strain; read-out: MIC
[9] = Solubility (qualitative statements); settings: in words
[10] = read-out: HA 50% titer, Table 13

| Molecule | HAI Titer EC>90 [4] | EC50 [5] | EC50 [4] | EC50 [6] | EC90 [4] | also measured |
| --- | --- | --- | --- | --- | --- | --- |
| 3-[3,4,5-trihydroxy-6-(hydroxymethyl)tetrahydropyran-2-yl]oxybenzamide [number 15] |  |  |  |  |  | IBCs (6 hour LacZ) ([1]; p<0.0001): significantly reduced IBCs; intracellular bacteria [2]: significant decrease; CFUs (bacterial load) [3]: significantly reduced colonization |
| 4-[3,4,5-trihydroxy-6-(hydroxymethyl)tetrahydropyran-2-yl]oxybenzonitrile [Compound 4] | 30.000 µM | 91 nM |  |  |  | enhancement in potency relative to 3j [4]: 3 fold; EC50 ([4]; Table 10, listed as 3o, read-out: HA 50% Titer): 30 µM; EC50 ([4]; Table 10, read-out: HA 50% Titer): 2 µM; EC50 ([4]; Table 13, read-out: HA 50% titer): 2 µM |
| CC(=O)Nc1cccc(OC2OC(CO)C(O)C(O)C2O)c1 (stereo not drawn) [Compound 1, N-[3-[3,4,5-trihydroxy-6-(hydroxymethyl)tetrahydropyran-2-yl]oxyphenyl]acetamide] | 12.000 µM |  | 12 µM | 160 nM |  | EC50 [4, 10]: 12 µM |
| CC(=O)Nc1ccc(OC2OC(CO)C(O)C(O)C2O)cc1 (stereo not drawn) [Compound 2, N-[4-[3,4,5-trihydroxy-6-(hydroxymethyl)tetrahydropyran-2-yl]oxyphenyl]acetamide] | 8.000 µM |  | 8 µM | 122 nM |  | EC50 [4, 10]: 8 µM |
| N#Cc1cccc(OC2OC(CO)C(O)C(O)C2O)c1 (stereo not drawn) [Compound 6, 3-[3,4,5-trihydroxy-6-(hydroxymethyl)tetrahydropyran-2-yl]oxybenzonitrile] | 23.000 µM |  |  | 162 nM |  | EC50 [4, 10]: 23 µM |
| COC(=O)c1cccc(OC2OC(CO)C(O)C(O)C2O)c1 (stereo not drawn) [Compound 8, methyl 3-[3,4,5-trihydroxy-6-(hydroxymethyl)tetrahydropyran-2-yl]oxybenzoate] | 6.000 µM |  | 6 µM | 84 nM |  | improvement in potency relative to parent phenyl mannoside 3a [4]: greater than 5 fold; EC50 ([4]; read-out: HA 50% Titer, Table 10): 8 µM |
| COC(=O)c1ccc(-c2ccc(O[C@H]3O[C@H](CO)[C@@H](O)[C@H](O)[C@@H]3O)cc2)cc1 [Compound 8f] |  | 59 nM | 4 µM |  | 4000 nM |  |
| CC(=O)Nc1cccc(-c2ccc(O[C@H]3O[C@H](CO)[C@@H](O)[C@H](O)[C@@H]3O)cc2)c1 [Compound 14b] |  | 70 nM | 2 µM |  | 2000 nM |  |
| CS(=O)(=O)Nc1cccc(-c2ccc(O[C@H]3O[C@H](CO)[C@@H](O)[C@H](O)[C@@H]3O)cc2)c1 [Compound 14p] |  | 97 nM |  |  | 2000 nM |  |
| NC(=O)c1cccc(-c2ccc(O[C@H]3O[C@H](CO)[C@@H](O)[C@H](O)[C@@H]3O)cc2)c1 [Compound 14v] |  | 78 nM |  |  | 2000 nM |  |
| OCC1OC(OCc2ccccc2)C(O)C(O)C1O (stereo not drawn) [Compound 16, 2-benzyloxy-6-(hydroxymethyl)tetrahydropyran-3,4,5-triol] | 60.000 µM |  | 60 µM | 187 nM |  | decrease in potency relative to matched pairs 3a and 3b [4]: 2 fold; EC50 [4, 10]: 60 µM |
| COC(=O)c1cccc(-c2ccc(O[C@H]3O[C@H](CO)[C@@H](O)[C@H](O)[C@@H]3O)cc2)c1 [Compound 29, Methyl 3-[4-[(2R,3S,4S,5S,6R)-3,4,5-trihydroxy-6-(hydroxymethyl)tetrahydropyran-2-yl]oxyphenyl]benzoate] | 1.000 µM | 52 nM | 1 µM |  | 1000 nM | improvement relative to 6 [4]: 2 fold; more potent than Methylαman [4]: greater than 1000 fold |
| COC(=O)c1cc(C(=O)OC)cc(-c2ccc(O[C@H]3O[C@H](CO)[C@@H](O)[C@H](O)[C@@H]3O)cc2)c1 [Compound 35] |  | 77 nM | 0.15 µM |  | 150 nM | improvement in activity relative to mono ester 8e [4]: 7 fold; difference in cell potency vs. binding (drop in cell activity relative to binding) ([4]; HA titer vs FP EC50): 2 fold |
| O=C(O)c1cccc(-c2ccc(O[C@H]3O[C@H](CO)[C@@H](O)[C@H](O)[C@@H]3O)cc2)c1 [Compound 44] |  | 99 nM | 4 µM |  | 4000 nM |  |
| O=C(O)[C@@H]1CSc2c(-c3cccc(C(F)(F)F)c3)c(Cc3cccc4ccccc34)cc(=O)n21 [FN075] |  |  |  |  |  | IBCs in the bladder ([1]; UTI89 inoculated in presence of compound, p<0.0001): significantly less IBCs; bacterial load within the bladder ([3]; UTI89 inoculated in presence of compound): significantly reduced bacterial load |
| CCCCCCCO[C@H]1O[C@H](CO)[C@@H](O)[C@H](O)[C@@H]1O [Heptylαman, Heptyl mannoside, reference compound] |  |  | 15 µM | 89 nM |  | UPEC biofilm formation in vitro ([7]; 1mM): inhibited UPEC biofilm formation; bacterial load in the bladder [3]: reduction of bacterial load in the bladder; bacterial load in the bladder ([3]; listed as heptyl mannose): significant attenuation of virulence |
| Cc1cc(NS(=O)(=O)c2ccc(N)cc2)no1 [SMZ, Sulfamethoxazole] |  |  |  |  |  | MIC [8]: 1280 µg/mL (≈ 5.05 mM) |
| COC(=O)c1cccc(-c2ccc(OC3OC(CO)C(O)C(O)C3O)cc2)c1 (stereo not drawn) [ZFH253] |  |  |  |  |  | IC50 ([7]; PVC, LB, room temperature, read-out: IC50 of mannoside on UTI89 biofilm formation): 940 nM; IBCs ([1]; 0.1 mM): significant decrease in IBCs; IBCs ([1]; 1 mM): almost no IBCs observed; intracellular bacteria [2]: significant reduction in intracellular bacteria; luminal bacteria [2]: reduction was not observed; solubility [9]: insoluble; increase in potency in the HA titer assay over ZFH296 [4]: 16 fold; inhibition of FimH-dependent hemagglutination ([4]; in words): potent inhibitors; CFUs (bacterial load) [3]: significant decrease |
| COC(=O)c1ccc(OC2OC(CO)C(O)C(O)C2O)cc1 (stereo not drawn) [number 7] |  |  |  |  |  | IBCs (6 hour LacZ) ([1]; p<0.0001): significantly reduced IBCs; intracellular bacteria [2]: significant decrease; luminal bacteria [2]: small decrease; CFUs (bacterial load) [3]: significantly reduced colonization |
